Experimental findings from patent US11596633B2, “SHP2 inhibitor compositions and methods for treating cancer” (Revolution Medicines, Inc., priority 2017, dated 2023) are described below.

In general, IC50 refers to the concentration that gives 50% inhibition.

Structures are written as SMILES.

Holding throughout (assay type): cell-based
Test [1] relates to NCI-H1666. In words: 3D proliferation (CTG). As to conditions: NCI-H1666 (Class III BRAF G466V/+).
Experimental: (§2) To evaluate cell viability in 3D culture, cells in logarithmic growth phase were plated in growth medium containing 0.65% methylcellulose at an optimum seeding density. Cells were incubated overnight prior to treatment with different concentrations of the test article. Cells were cultured for an additional seven days and cell viability assessed using the CellTiterGlo™ (CTG) reagent, according to the manufacturer's instructions. In some instances, cells were grown in 3D culture as spheroids. Briefly, 2500 cells/well were seeded in round bottom ultra-low attachment 96-well plates (Corning) in growth media supplemented with 10% fetal bovine serum and 1% penicillin/streptomycin, and allowed to form spheroids for 72 hours at 37° C. in 5% CO2. […] Following drug exposure for five days, cell viability in spheroids was determined using the CellTiter-Glo assay kit.
The subject of test [2] is A375 cells. Briefly: 3D proliferation (CTG). To be noted: A375 (Class I BRAF V600E), 3D culture.
Experimental: as §2
Test [3] relates to pERK in NCI-H1666 cells. Briefly: p-ERK AlphaLisa SureFire. To be noted: NCI-H1666 (Class III BRAF G466V/+). As to the method:
(§1) Cells were plated at ˜20×10^3 cells per well and following overnight incubation were washed with serum-free media. Cells were then incubated for one hour with increasing concentrations of the test article in serum-free media containing 0.2% BSA prior to termination of the assay and measurement of pERK levels in cellular lysates by AlphaLisa SureFire Ultra kit conducted according to the manufacturer's instructions.
(Alpha assays give light when donor and acceptor beads are brought close together.)

Test [4] relates to p-ERK1/2 in H1792 cells. Briefly: p-ERK AlphaLisa SureFire. To be noted: H1792 cells (KRAS G12C). As for the experimental part: as §1
Test [5] relates to pERK in MeWo cells. In words: p-ERK AlphaLisa SureFire. As to the method:
as §1

Test [6] deals with pERK in A375 cells. Briefly: p-ERK AlphaLisa SureFire. As to conditions: A375 (Class I BRAF V600E). As to the method:
as §1

Test [7] relates to pERK in NCI-H508 cells. In words: p-ERK AlphaLisa SureFire. To be noted: NCI-H508 (Class III BRAF G596R/+). As to the method: as §1
The subject of test [8] is pERK in Cal-12T cells. Briefly: p-ERK AlphaLisa SureFire. As to conditions: Cal-12T (Class III BRAF G466V/+). As for the experimental part:
as §1

Test [9] relates to NCI-H2122. In words: 3D cell viability (CTG). To be noted: Homo sapiens; NCI-H2122, KRAS G12C, 3D culture.
Experimental: as §2
For test [10], the system named is MIAPaCa-2. Briefly: 3D cell viability (CTG). As to conditions: Homo sapiens, MIA PaCa-2; MIAPaCa-2, KRAS G12C, 3D culture.
Experimental: as §2
For test [11], the system named is NCI-H1944. Briefly: 3D cell viability (CTG). As to conditions: Homo sapiens; NCI-H1944, KRAS G13D, 3D culture.
Experimental: as §2
Test [12] relates to NCI-H727. In words: 3D cell viability (CTG). To be noted: Homo sapiens; NCI-H727, KRAS G12V, 3D culture.
Experimental: as §2
Test [13] has as its system HCT116. In words: 3D cell viability (CTG). As to conditions: Homo sapiens, HCT-116; HCT116, KRAS G13D, 3D culture.
Experimental: (§3) To evaluate cell viability in 3D culture, cells in logarithmic growth phase were plated in growth medium containing 0.65% methylcellulose at an optimum seeding density. Cells were incubated overnight prior to treatment with different concentrations of the test article. Cells were cultured for an additional seven days and cell viability assessed using the CellTiterGlo™ (CTG) reagent, according to the manufacturer's instructions. In some instances, cells were grown in 3D culture as spheroids. Briefly, 2500 cells/well were seeded in round bottom ultra-low attachment 96-well plates (Corning) in growth media supplemented with 10% fetal bovine serum and 1% penicillin/streptomycin, and allowed to form spheroids for 72 hours at 37° C. in 5% CO2. […] Following drug exposure for five days, cell viability in spheroids was determined using the CellTiter-Glo assay kit. […] After one day in culture, cells were treated with the test article, which was then replenished every three days. Cells were maintained in culture for 10 days until the control wells reached confluency at which time the cells were fixed and stained with crystal violet.
The subject of test [14] is SNU-601. In words: 3D cell viability (CTG). To be noted: SNU-601, KRAS G12D, 3D culture.
Experimental: as §2
Test [15] relates to phosphorylated RTKs in MDA-MB-231 cells. In words: Phospho-RTK array. As to conditions: MDA-MB-231 (KRAS G13D), 24 hours; selumetinib 5 μM, Compound A 1 and 5 μM. As for the experimental part: To determine the effects of test article(s) on levels of phosphorylated RTKs, MDA-MB231 cells were seeded in 6-well plates and incubated overnight in full growth medium. Cells were treated for 24 hours with selumetinib (5 μM) or Compound A (1 and 5 μM) or left untreated (DMSO control). Lysates were generated using the lysis buffer provided with the kit (Phospho-RTK Array; R&D systems) with inclusion of a protease inhibitor cocktail. To control for protein concentration, total protein levels were quantified using BCA reagent kit. The levels of phospho-RTK were determined according to the manufacturer's instructions.

Test [16] concerns SK-LU-1. Briefly: 3D cell viability (CTG). To be noted: Homo sapiens; SK-LU-1, KRAS G12D, 3D culture.
Experimental: as §2
The subject of test [17] is SW480. In words: 3D cell viability (CTG). As to conditions: Homo sapiens; SW480, KRAS G12V, 3D culture.
Experimental: as §3
Test [18] concerns Calu-1. Briefly: 3D cell viability (CTG). To be noted: Homo sapiens; Calu-1, KRAS G12C, 3D culture.
Experimental: as §2
The test system of test [19] is SNU-668. Briefly: 3D cell viability (CTG). As to conditions: SNU668; SNU-668, KRAS Q61K, 3D culture.
Experimental: as §2
The subject of test [20] is SW900. Briefly: 3D cell viability (CTG). As to conditions: Homo sapiens; SW900, KRAS G12V, 3D culture.
Experimental: as §3
Test [21] deals with LS513. In words: 3D cell viability (CTG). As to conditions: Homo sapiens, LS-513; LS513, KRAS G12D, 3D culture.
Experimental: as §2

Take `Cc1nc(N2CCC3(CC2)CO[C@@H](C)[C@H]3N)c(CO)nc1-c1cccc(Cl)c1Cl` [Compound B]: the proliferation entry in test [1] is on record as “suppression”; in test [2] it was “failed to suppress”. Further, the pERK levels entry in [3] is listed as “suppression”; in test [6] it was “failed to suppress”; in test [7] it was “suppression”; in test [8] it was “suppression”. The “inhibition of p-ERK1/2 levels” value in [4] is “concentration-dependent inhibition”. Moreover, the IC50 in [5] (Homo sapiens, MeWo, 1 h, read-out: geometric mean IC50 for reduction in pERK) came to 24 nM. The pERK result in test [5] (MeWo (NF1 LOF)) was “suppression”.
On to `Nc1nc(N2CCC3(CCC[C@H]3N)CC2)cnc1Sc1ccnc(Cl)c1Cl` [Compound A], for which the IC50 was 5.9 µM in test [9]; 0.3 µM in [10]; above 10 µM in test [11]; 0.3 µM in [12]; above 10 µM in test [13]; 2.9 µM in [14]. Further, the IC50 was above 10 µM in test [16]; above 10 µM in [17]; above 10 µM in test [18]; above 10 µM in [19]; above 10 µM in test [20]; 0.1 µM in test [21]. In test [15], the “feedback-driven p-RTK hyperactivation” value is “did not”.
